The values that follow come from ChEMBL document CHEMBL1129695, “Synthesis and structure-activity relationships of 6-substituted androst-4-ene analogs as aromatase inhibitors” (J Med Chem, 1996).

The target in assay [1] is T1, Aromatase (Homo sapiens, UniProt P11511).
T1 sequence (P11511 whole entry): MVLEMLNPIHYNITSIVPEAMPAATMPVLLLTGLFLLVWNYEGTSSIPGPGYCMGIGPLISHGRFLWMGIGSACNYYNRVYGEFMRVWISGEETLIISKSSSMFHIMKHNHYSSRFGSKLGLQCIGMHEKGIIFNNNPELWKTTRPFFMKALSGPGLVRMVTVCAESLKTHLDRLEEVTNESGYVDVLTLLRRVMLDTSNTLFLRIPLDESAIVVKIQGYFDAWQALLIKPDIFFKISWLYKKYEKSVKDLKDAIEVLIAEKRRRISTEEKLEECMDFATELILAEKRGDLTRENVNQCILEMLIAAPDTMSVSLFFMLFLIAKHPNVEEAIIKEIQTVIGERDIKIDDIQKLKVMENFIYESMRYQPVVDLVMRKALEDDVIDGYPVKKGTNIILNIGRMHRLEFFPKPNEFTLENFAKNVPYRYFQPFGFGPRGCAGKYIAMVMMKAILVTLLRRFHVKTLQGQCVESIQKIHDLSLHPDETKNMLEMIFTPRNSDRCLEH
Description: In vitro inhibition of cytochrome P450 19A1 in human placental microsomes

For assay [2], the target named is T1, Aromatase. The source holds these as a separate data set.
Description: Apparent inhibition constant (Ki) against Cytochrome P450 19A1

Usually IC50 stands for the concentration that gives 50% inhibition. The term Ki denotes the equilibrium dissociation constant of an inhibitor or competing ligand from its target. A lower Ki goes with tighter binding.

Take `CC(=O)O[C@H]1CC2C3CCC(=O)C3(C)CCC2C2(C)CCCC=C12` (some centres undefined): in assay [1], the IC50 stood at 160 nM. Besides, the Ki in assay [2] turned out to be 18 nM.

In the case of `C[C@H]1CC2C(CCC3(C)C(O)CCC23)C2(C)CCCC=C12` (some centres undefined), in assay [1], 3700 nM corresponded to half-maximal inhibition (IC50). The compound further displayed a Ki in assay [2] of 380 nM.

In the case of `CC[C@@H]1CC2C3CCC(=O)C3(C)CCC2C2(C)CCCC=C12` (some centres undefined), half-maximal inhibition in assay [1] (IC50) required 320 nM. Further, in assay [2], the Ki is 43 nM.

For `CCCCC[C@H]1CC2C3CCC(=O)C3(C)CCC2C2(C)CCCC=C12` (some centres undefined), the IC50 in assay [1] came to 9000 nM. In assay [2], this compound returned a Ki of 400 nM.

Compound `CCCCC[C@H]1CC2C(CCC3(C)C(O)CCC23)C2(C)CCCC=C12` (some centres undefined) had an IC50 in assay [1] greater than 50000 nM. Also, in assay [2], the affinity, expressed as Ki, was 44000 nM.

In turn, `CCC[C@H]1CC2C3CCC(=O)C3(C)CCC2C2(C)CCCC=C12` (some centres undefined) had an IC50 in assay [1] of 230 nM. The same compound displayed a Ki in assay [2] of 30 nM.

`CC[C@H]1CC2C(CCC3(C)C(O)CCC23)C2(C)CCCC=C12` (some centres undefined): the IC50 in assay [1] is 1300 nM. Also, affinity in assay [2] was put at a Ki of 180 nM.

Take `CCCCC[C@@H]1CC2C(CCC3(C)C(O)CCC23)C2(C)CCCC=C12` (some centres undefined): in assay [1], the IC50 was greater than 50000 nM. Moreover, in assay [2], the Ki was determined as 100000 nM.

Take `CCCCCCCC[C@H]1CC2C(CCC3(C)C(O)CCC23)C2(C)CCCC=C12` (some centres undefined): the IC50 in assay [1] is greater than 50000 nM.

In assay [1], `CC[C@@H]1CC2C(CCC3(C)C(O)CCC23)C2(C)CCCC=C12` (some centres undefined) yielded an IC50 of 3300 nM. In assay [2], the Ki is 340 nM.

Regarding `CO[C@@H]1CC2C3CCC(=O)C3(C)CCC2C2(C)CCCC=C12` (some centres undefined), the IC50 in assay [1] was 130 nM. This compound returned a Ki in assay [2] of 12 nM.

Turning to `CCCCCCCC[C@@H]1CC2C3CCC(=O)C3(C)CCC2C2(C)CCCC=C12` (some centres undefined), the IC50 in assay [1] is greater than 50000 nM. In assay [2], the Ki came out at 2600 nM.

Regarding `CCCCCCCC[C@@H]1CC2C(CCC3(C)C(O)CCC23)C2(C)CCCC=C12` (some centres undefined), the IC50 in assay [1] was greater than 50000 nM.

Turning to `CCC[C@@H]1CC2C3CCC(=O)C3(C)CCC2C2(C)CCCC=C12` (some centres undefined), half-maximal inhibition in assay [1] (IC50) was put at 440 nM. In addition, the Ki in assay [2] is 51 nM.

`CC12CCCC=C1CCC1C2CCC2(C)C1CC[C@@H]2O` (some centres undefined) yielded an IC50 in assay [1] of 360 nM. For the same compound, the inhibition constant (Ki) in assay [2] stood at 45 nM.

Take `C[C@@H]1CC2C3CCC(=O)C3(C)CCC2C2(C)CCCC=C12` (some centres undefined): 49 nM corresponded to half-maximal inhibition in assay [1] (IC50). Moreover, in assay [2], the Ki worked out at 5.3 nM.

Compound `CCCCC[C@@H]1CC2C3CCC(=O)C3(C)CCC2C2(C)CCCC=C12` (some centres undefined) gave an IC50 in assay [1] of 12000 nM. Also, in assay [2], the Ki came out at 1200 nM.

Regarding `CC[C@H]1CC2C3CCC(=O)C3(C)CCC2C2(C)CCCC=C12` (some centres undefined), in assay [1], half-maximal inhibition (IC50) was put at 110 nM. Moreover, the Ki in assay [2] is 43 nM.

For the compound `CC(=O)O[C@@H]1CC2C3CCC(=O)C3(C)CCC2C2(C)CCCC=C12` (some centres undefined), half-maximal inhibition in assay [1] (IC50) was put at 260 nM. In assay [2], this compound came in with a Ki of 24 nM.

The compound `C[C@@H]1CC2C(CCC3(C)C(O)CCC23)C2(C)CCCC=C12` (some centres undefined) gave an IC50 in assay [1] of 1600 nM. In assay [2], this compound registered a Ki of 140 nM.

On to `CO[C@H]1CC2C3CCC(=O)C3(C)CCC2C2(C)CCCC=C12` (some centres undefined), for which half-maximal inhibition in assay [1] (IC50) was put at 120 nM. In assay [2], affinity was put at a Ki of 12 nM.

Compound `CCCCCCCC[C@H]1CC2C3CCC(=O)C3(C)CCC2C2(C)CCCC=C12` (some centres undefined) came in with an IC50 in assay [1] greater than 50000 nM. This compound came in with a Ki in assay [2] of 4100 nM.

On to `C[C@H]1CC2C3CCC(=O)C3(C)CCC2C2(C)CCCC=C12` (some centres undefined), for which half-maximal inhibition in assay [1] (IC50) required 37 nM. This compound also registered a Ki in assay [2] of 3.1 nM.
